In data set [1] the target is HBV. The conditions noted are these: ASO.
Data set [2] has as its target DGAT2. The conditions noted are these: ASO.

This passage reports target mRNA inhibition results from the OligoGym collection.

“And” between values parts separate entries of the source, which are not always exact repeats. Equal entries are not always repeated. After the bases stand the sugars from the 5' end (letter, count) and the backbone: PS all phosphorothioate, else s phosphorothioate and o phosphodiester by linkage. HELM strings list units from the 5' end as sugar, base in round brackets, then linkage (d deoxyribose, r ribose, m 2'-O-methyl, p phosphodiester). Methylation of C is not given here. [moe] = 2'-O-(2-methoxyethyl) (MOE); [cEt] = constrained ethyl (cEt); [sp] = phosphorothioate linkage; e = 2'-O-(2-methoxyethyl) (MOE); d = 2'-deoxy (DNA)

In the case of “RNA1{[moe](A)[sp].[cEt](A)[sp].[cEt](G)[sp].d(A)[sp].d(T)[sp].d(G)[sp].d(A)[sp].d(G)[sp].d(G)[sp].d(C)[sp].d(A)[sp].d(T)[sp].d(A)[sp].[cEt](G)[sp].[cEt](C)[sp].[moe](A)}$$$$V2.0”, in data set [1] (HepG2, 0.07 µM), the target mRNA inhibition was 64% and 62%. In the case of “RNA1{[moe](A)[sp].[cEt](A)[sp].[cEt](T)[sp].d(T)[sp].d(T)[sp].d(A)[sp].d(T)[sp].d(G)[sp].d(C)[sp].d(C)[sp].d(T)[sp].d(A)[sp].d(C)[sp].[cEt](A)[sp].[cEt](G)[sp].[moe](C)}$$$$V2.0”, the target mRNA inhibition in data set [1] (HepG2, 0.07 µM) was 70% and 73%. As to “RNA1{[moe](A)[sp].[cEt](A)[sp].[moe](G)[sp].[cEt](C)[sp].d(G)[sp].[cEt](A)[sp].d(A)[sp].d(G)[sp].d(T)[sp].d(G)[sp].d(C)[sp].d(A)[sp].d(C)[sp].[moe](A)[sp].[moe](C)[sp].[moe](G)[sp].[moe](G)}$$$$V2.0”, the target mRNA inhibition in data set [1] (HepG2, 0.009375 µM) turned out to be 31%; in data set [1] (HepG2, 0.01875 µM), 28%; in data set [1] (HepG2, 0.0375 µM), 48%; in data set [1] (HepG2, 0.075 µM) it was 61%; in data set [1] (HepG2, 0.15 µM), 80%; in data set [1] (HepG2, 0.3 µM), 90%. For “RNA1{[moe](A)[sp].[cEt](C)[sp].[cEt](A)[sp].d(G)[sp].d(C)[sp].d(T)[sp].d(T)[sp].d(G)[sp].d(G)[sp].d(A)[sp].d(G)[sp].d(G)[sp].d(C)[sp].[cEt](T)[sp].[cEt](T)[sp].[moe](G)}$$$$V2.0”, in data set [1] (HepG2, 0.07 µM), the target mRNA inhibition was 10% and 0%. For the substance “RNA1{[moe](A)[sp].[cEt](C)[sp].[cEt](G)[sp].d(G)[sp].d(G)[sp].d(C)[sp].d(A)[sp].d(A)[sp].d(C)[sp].d(A)[sp].d(T)[sp].d(A)[sp].d(C)[sp].[cEt](C)[sp].[cEt](T)[sp].[moe](T)}$$$$V2.0”, the target mRNA inhibition in data set [1] (HepG2, 0.0092593 µM) was 38%; in data set [1] (HepG2, 0.0277778 µM), 73%; in data set [1] (HepG2, 0.07 µM), 63% and 88%; in data set [1] (HepG2, 0.0833333 µM), 87%; in data set [1] (HepG2, 0.25 µM) it was 92%. For “RNA1{[moe](A)[sp].[cEt](C)[sp].d(T)[sp].d(G)[sp].d(G)[sp].d(A)[sp].d(G)[sp].d(C)[sp].d(C)[sp].d(A)[sp].d(C)[sp].d(C)[sp].[cEt](A)[sp].[moe](G)[sp].[cEt](C)[sp].[moe](A)}$$$$V2.0”, the target mRNA inhibition in data set [1] (HepG2, 0.07 µM) was 67% and 55%. For the substance “RNA1{[moe](A)[sp].[cEt](G)[sp].[cEt](A)[sp].d(T)[sp].d(G)[sp].d(A)[sp].d(G)[sp].d(G)[sp].d(C)[sp].d(A)[sp].d(T)[sp].d(A)[sp].d(G)[sp].[cEt](C)[sp].[cEt](A)[sp].[moe](G)}$$$$V2.0”, the target mRNA inhibition in data set [1] (HepG2, 0.07 µM) was 59% and 56%.

On to “RNA1{[moe](A)[sp].[cEt](G)[sp].[cEt](C)[sp].d(G)[sp].d(A)[sp].d(A)[sp].d(G)[sp].d(T)[sp].d(G)[sp].d(C)[sp].d(A)[sp].d(C)[sp].d(A)[sp].[cEt](C)[sp].[cEt](G)[sp].[moe](G)}$$$$V2.0”, for which the target mRNA inhibition is 19% in data set [1] (HepG2, 0.0092593 µM); 52% in data set [1] (HepG2, 0.0277778 µM); 83% and 82% in data set [1] (HepG2, 0.07 µM); 86% in data set [1] (HepG2, 0.0833333 µM); 93% in data set [1] (HepG2, 0.25 µM). In the case of “RNA1{[moe](A)[sp].[cEt](G)[sp].[cEt](C)[sp].d(T)[sp].d(T)[sp].d(G)[sp].d(G)[sp].d(A)[sp].d(G)[sp].d(G)[sp].d(C)[sp].d(T)[sp].d(T)[sp].[cEt](G)[sp].[cEt](A)[sp].[moe](A)}$$$$V2.0”, the target mRNA inhibition in data set [1] (HepG2, 0.07 µM) is 5% and 0%. On the same count and under the same terms, next, “RNA1{[moe](A)[sp].[cEt](T)[sp].d(G)[sp].d(A)[sp].d(G)[sp].d(G)[sp].d(C)[sp].d(A)[sp].d(T)[sp].d(A)[sp].d(G)[sp].d(C)[sp].[cEt](A)[sp].[moe](G)[sp].[cEt](C)[sp].[moe](A)}$$$$V2.0”: 63% and 57%; “RNA1{[moe](A)[sp].[moe](A)[sp].[moe](C)[sp].[moe](C)[sp].[moe](A)[sp].d(C)[sp].d(T)[sp].d(G)[sp].d(A)[sp].d(A)[sp].d(C)[sp].d(A)[sp].d(A)[sp].d(A)[sp].[moe](T)[sp].[moe](G)[sp].[moe](G)}$$$$V2.0”: 55% and 52%; “RNA1{[moe](A)[sp].[moe](A)[sp].[moe](C)[sp].[moe](C)[sp].[moe](A)[sp].d(C)[sp].d(T)[sp].d(G)[sp].d(A)[sp].d(A)[sp].d(C)[sp].d(A)[sp].d(A)[sp].d(A)[sp].[moe](T)[sp].[moe](G)}$$$$V2.0”: 24% and 20%. For the substance “RNA1{[moe](A)[sp].[moe](A)[sp].[moe](G)[sp].[cEt](C)[sp].[cEt](G)[sp].d(A)[sp].d(A)[sp].d(G)[sp].d(T)[sp].d(G)[sp].d(C)[sp].d(A)[sp].[cEt](C)[sp].[cEt](A)[sp].[moe](C)[sp].[moe](G)[sp].[moe](G)}$$$$V2.0”, the target mRNA inhibition in data set [1] (HepG2, 0.009375 µM) is 23%; in data set [1] (HepG2, 0.01875 µM), 19%; in data set [1] (HepG2, 0.0375 µM) it was 39%; in data set [1] (HepG2, 0.075 µM), 49%; in data set [1] (HepG2, 0.15 µM) it was 66%; in data set [1] (HepG2, 0.3 µM) it was 75%. For “TGCAATGTTGCCATCATACT (sugars e5 d10 e5, PS)”, the target mRNA inhibition is 65% and 49% in data set [2] (HepG2, 2.5 µM); 91% and 83% in data set [2] (HepG2, 10 µM). In data set [2] (HepG2, 0.12 µM), “TGCAGAAGGCACCCAGGCCC (sugars e5 d10 e5, PS)” yielded a target mRNA inhibition of 46%. Still for that read-out and setting: next, “TGCAGCTTGGAGGAGGAGTA (sugars e5 d10 e5, PS)”: 36%. Consider “TGCCACTCCCATTCTTTGAA (sugars e5 d10 e5, PS)”, for which the target mRNA inhibition was found to be 0% in data set [2] (HepG2, 2.5 µM) and 62% in data set [2] (HepG2, 10 µM). In the same order, the values of “TGCGCGATTCACTGAGGACC (sugars e5 d10 e5, PS)” are 51% and 87%. On to “TGCTGCTCAGAAGGCCAGGC (sugars e5 d10 e5, PS)”, for which, in data set [2] (HepG2, 0.12 µM), the target mRNA inhibition amounted to 42%. The same measure, in the same setting: for “TGGAGCTCAGAGACTCAGCC (sugars e2 d16 e2, PS)” the value was 37%; for “TGGATGGGAAAGTAGTCTCG (sugars e5 d10 e5, PS)”, 40%. In the case of “TGGCCCTGTGCTCTGTGGGC (sugars e5 d10 e5, PS)”, the target mRNA inhibition in data set [2] (HepG2, 10 µM) is 35% and 33%.
